Experimental data: ChEMBL document CHEMBL4673282, “Identification of a New Heterocyclic Scaffold for Inhibitors of the Polo-Box Domain of Polo-like Kinase 1” (J Med Chem, 2020)
pIC50: −log10 of the molar value. Converted amounts (≈) assume the structure as drawn. The source made the active and inactive calls. The rule behind the calls is not given here.

Key:
in vitro = settings: PAMPA
Description: Permeability of the compound by PAMPA

[1] = Aqueous solubility of compound; type: physicochemical; settings: buffer
[2] = Half life in rat liver microsomes at 1 uM measured up to 60 mins in presence of NADPH generating system; settings: 1 h
[3] = biological target: Serine/threonine-protein kinase PLK3 (Homo sapiens) (UniProt Q9H4B4); experiment: Inhibition of FITC-Ahx-DPPLHSpTAI-NH2 binding to Plk3 PBD (unknown origin) expressed in bacterial expression system measured after 30 mins by fluorescence polarization assay
[4] = biological target: Serine/threonine-protein kinase PLK1 (Homo sapiens, UniProt P53350); experiment: Inhibition of biotin-Ahx-CETFDPPLHSpTAI-NH2 binding to recombinant human full-length HA-EGFP-tagged Plk1 PBD expressed in HEK293A cells preincubated for 30 mins followed by biotin-Ahx-CETFDPPLHSpTAI-NH2 addition and measured after 1 hr by 3,3',5,5'-tetramethylbenzidine substrate based ELISA; type: cell-based, HEK293-A
[5] = biological target: Serine/threonine-protein kinase PLK2 (Homo sapiens, UniProt Q9NYY3); experiment: Inhibition of FITC-Ahx-DPPLHSpTAI-NH2 binding to Plk2 PBD (unknown origin) expressed in bacterial expression system measured after 30 mins by fluorescence polarization assay; settings: 0.5 h
HeLa [6] = experiment: Induction of mitotic arrest in human HeLa cells assessed as rounded cells with apoptosis at 100 uM measured after 12 hrs by DAPI staining based phase contrast microscopic analysis; type: functional, cell-based
HeLa [7] = experiment: Induction of mitotic arrest in human HeLa cells assessed as apperance of aberrant chromosomal morphology at 100 uM measured after 12 hrs by DAPI staining based phase contrast microscopic analysis; type: functional, cell-based
[8] = Half life in human cytosol; type: ADME, subcellular
[9] = Half life in rat cytosol; type: ADME, subcellular
[10] = Half life in mouse cytosol; type: ADME, subcellular

Serine/threonine-protein kinase PLK1, sequence (P53350 whole entry): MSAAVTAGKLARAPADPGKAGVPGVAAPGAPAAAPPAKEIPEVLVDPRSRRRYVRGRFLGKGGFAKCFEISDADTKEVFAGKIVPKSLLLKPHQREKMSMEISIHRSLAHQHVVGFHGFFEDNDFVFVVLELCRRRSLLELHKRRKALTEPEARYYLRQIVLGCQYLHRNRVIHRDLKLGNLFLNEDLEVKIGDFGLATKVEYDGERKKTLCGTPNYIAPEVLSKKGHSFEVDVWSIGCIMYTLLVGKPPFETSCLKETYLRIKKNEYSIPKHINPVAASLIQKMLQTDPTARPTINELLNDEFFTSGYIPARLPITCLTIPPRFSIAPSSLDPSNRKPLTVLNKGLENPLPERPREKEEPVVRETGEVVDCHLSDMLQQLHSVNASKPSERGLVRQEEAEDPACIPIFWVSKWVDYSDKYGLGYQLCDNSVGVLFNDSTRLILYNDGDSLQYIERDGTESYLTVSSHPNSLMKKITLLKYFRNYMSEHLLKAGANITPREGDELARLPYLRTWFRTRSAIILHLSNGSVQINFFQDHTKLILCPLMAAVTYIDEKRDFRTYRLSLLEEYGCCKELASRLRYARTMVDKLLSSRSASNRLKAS
Serine/threonine-protein kinase PLK3 (Homo sapiens), sequence (Q9H4B4 whole entry, looked up): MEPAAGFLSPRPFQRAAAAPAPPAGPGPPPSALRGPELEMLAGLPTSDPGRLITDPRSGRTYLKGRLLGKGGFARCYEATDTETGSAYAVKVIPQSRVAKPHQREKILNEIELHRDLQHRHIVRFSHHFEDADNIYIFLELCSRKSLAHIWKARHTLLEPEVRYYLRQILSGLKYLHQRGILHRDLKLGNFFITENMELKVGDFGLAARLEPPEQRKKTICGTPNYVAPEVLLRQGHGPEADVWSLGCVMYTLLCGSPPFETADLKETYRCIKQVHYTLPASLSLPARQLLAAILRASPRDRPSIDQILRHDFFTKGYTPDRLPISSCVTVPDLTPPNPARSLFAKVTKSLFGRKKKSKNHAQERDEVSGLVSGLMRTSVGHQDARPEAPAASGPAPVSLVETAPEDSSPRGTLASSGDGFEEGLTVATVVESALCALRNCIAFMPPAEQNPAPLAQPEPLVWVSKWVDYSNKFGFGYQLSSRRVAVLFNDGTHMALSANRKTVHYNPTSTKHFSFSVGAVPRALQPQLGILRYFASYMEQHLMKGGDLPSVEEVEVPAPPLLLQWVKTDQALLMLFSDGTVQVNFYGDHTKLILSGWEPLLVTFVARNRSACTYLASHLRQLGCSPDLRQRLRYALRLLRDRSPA
Serine/threonine-protein kinase PLK2, sequence (Q9NYY3 whole entry): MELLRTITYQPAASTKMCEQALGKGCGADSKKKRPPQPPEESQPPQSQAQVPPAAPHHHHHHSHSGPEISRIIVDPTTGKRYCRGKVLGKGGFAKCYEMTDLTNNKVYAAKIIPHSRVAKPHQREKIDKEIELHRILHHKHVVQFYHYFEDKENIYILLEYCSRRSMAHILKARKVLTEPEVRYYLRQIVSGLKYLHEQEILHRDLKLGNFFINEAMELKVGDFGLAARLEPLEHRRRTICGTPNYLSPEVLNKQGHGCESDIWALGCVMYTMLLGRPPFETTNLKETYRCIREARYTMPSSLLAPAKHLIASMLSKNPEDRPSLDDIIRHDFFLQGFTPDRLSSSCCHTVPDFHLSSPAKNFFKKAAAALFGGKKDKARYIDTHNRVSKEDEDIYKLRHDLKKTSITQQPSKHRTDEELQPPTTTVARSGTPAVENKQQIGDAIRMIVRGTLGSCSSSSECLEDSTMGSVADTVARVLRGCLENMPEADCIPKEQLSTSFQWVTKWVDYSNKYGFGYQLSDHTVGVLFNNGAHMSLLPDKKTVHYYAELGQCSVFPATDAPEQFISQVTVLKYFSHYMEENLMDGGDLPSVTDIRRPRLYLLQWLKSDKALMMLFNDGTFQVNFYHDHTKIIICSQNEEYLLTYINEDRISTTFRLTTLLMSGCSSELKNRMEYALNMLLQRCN

SMILES: CNC(=S)N1CN(CCc2ccccc2)C(=O)c2cc(F)ccc21
- Papp (in vitro): 161 ×10⁻⁶ cm/s
- solubility [1]: 4.5 µg/mL (≈ 13.1 µM)
- t1/2 [2]: 2.2 min

SMILES: CC(=O)N1CCC[C@H]1C(=O)N[C@@H](CC(C)C)C(=O)N[C@@H](Cc1cnc[nH]1)C(=O)N[C@@H](CO)C(=O)N[C@H](C(=O)O)[C@@H](C)OP(=O)(O)O
- inhibition [3]: inactive

SMILES: O=c1c2cc(Br)ccc2n2c(=S)[nH]nc2n1CCc1ccccc1
- Papp (in vitro): 162 ×10⁻⁶ cm/s
- solubility [1]: < 1 µg/mL
- t1/2 [2]: > 30 min

SMILES: O=C(O)CCC(=O)NCCCn1c(=O)c2cc(F)ccc2n2c(=S)[nH]nc12
- Papp (in vitro): < 1 ×10⁻⁶ cm/s
- solubility [1]: > 58 µg/mL
- t1/2 [2]: > 30 min

SMILES: O=c1c2cc(F)ccc2n2c(=S)[nH]nc2n1CCC(F)(F)F
- Papp (in vitro): 117 ×10⁻⁶ cm/s
- solubility [1]: 17.3 µg/mL (≈ 52.1 µM)
- t1/2 [2]: > 30 min

SMILES: C=CCn1c(=O)c2ccccc2n2c(S)nnc12
- pIC50 [4]: 5.88
- solubility [1]: 19.4 µg/mL (≈ 75.1 µM)

SMILES: O=c1c2cc(F)ccc2n2c(=S)[nH]nc2n1CCC1CCC(F)(F)CC1
- Papp (in vitro): 201 ×10⁻⁶ cm/s
- solubility [1]: < 1 µg/mL
- t1/2 [2]: > 30 min

SMILES: CC(=O)NCCCn1c(=O)c2cc(F)ccc2n2c(=S)[nH]nc12
- Papp (in vitro): 18 ×10⁻⁶ cm/s
- solubility [1]: > 50 µg/mL
- t1/2 [2]: > 30 min

SMILES: CN(C)CCn1c(=O)c2cc(F)ccc2n2c(=S)[nH]nc12
- Papp (in vitro): 117 ×10⁻⁶ cm/s
- solubility [1]: > 45 µg/mL
- t1/2 [2]: > 30 min

SMILES: CC(=O)N1CCC[C@H]1C(=O)N[C@@H](CC(C)C)C(=O)N[C@@H](Cc1cnc[nH]1)C(=O)N[C@@H](CO)C(=O)N[C@H](C(=O)O)[C@@H](C)O
- inhibition [3]: inactive

SMILES: O=C(NCCCn1c(=O)c2cc(F)ccc2n2c(=S)[nH]nc12)C1CCCC1
- Papp (in vitro): 155 ×10⁻⁶ cm/s
- solubility [1]: > 58 µg/mL
- t1/2 [2]: > 30 min

SMILES: CC(C)CCn1c(=O)c2ccccc2n2c(=S)[nH]nc12
- pIC50 [4]: 5.76
- solubility [1]: 8 µg/mL (≈ 27.7 µM)

SMILES: O=c1c2cc(F)ccc2n2c(=S)[nH]nc2n1CCCO
- Papp (in vitro): 222 ×10⁻⁶ cm/s
- solubility [1]: > 43 µg/mL
- t1/2 [2]: > 30 min

SMILES: NCCCn1c(=O)c2cc(F)ccc2n2c(=S)[nH]nc12.O=C(O)C(F)(F)F
- Papp (in vitro): < 1 ×10⁻⁶ cm/s
- solubility [1]: > 43 µg/mL
- t1/2 [2]: > 30 min

SMILES: O=c1c2cc(F)ccc2n2c(=S)[nH]nc2n1CCN1CCC(F)(F)CC1
- Papp (in vitro): 234 ×10⁻⁶ cm/s
- solubility [1]: 20.2 µg/mL (≈ 52.7 µM)
- t1/2 [2]: > 30 min

SMILES: O=c1c2ccncc2n2c(=S)[nH]nc2n1CCc1ccccc1
- Papp (in vitro): 202 ×10⁻⁶ cm/s
- solubility [1]: 17.3 µg/mL (≈ 53.5 µM)
- t1/2 [2]: 15.8 min

SMILES: O=c1c2cc(F)ccc2n2c(=S)[nH]nc2n1CC1CC1
- inhibition [3]: inactive
- inhibition (INH) [5]: Not Active
- Papp (in vitro): 46 ×10⁻⁶ cm/s
- solubility [1]: 16.2 µg/mL (≈ 55.8 µM)
- t1/2 [2]: > 30 min

SMILES: CN1CCN(CC(=O)NCCCn2c(=O)c3cc(F)ccc3n3c(=S)[nH]nc23)CC1
- Papp (in vitro): < 1 ×10⁻⁶ cm/s
- solubility [1]: > 64 µg/mL
- t1/2 [2]: > 30 min

SMILES: O=c1c2cc(F)ccc2n2c(=S)[nH]nc2n1CCN1CCCCC1
- Papp (in vitro): 358 ×10⁻⁶ cm/s
- solubility [1]: 2.4 µg/mL (≈ 6.91 µM)
- t1/2 [2]: > 30 min

SMILES: O=c1c2cc(Cl)ccc2n2c(=S)[nH]nc2n1CCC(F)(F)F
- Papp (in vitro): 257 ×10⁻⁶ cm/s
- solubility [1]: 5.1 µg/mL (≈ 14.6 µM)
- t1/2 [2]: > 30 min

SMILES: CC(CN(C)C)n1c(=O)c2cc(F)ccc2n2c(=S)[nH]nc12 (racemic)
- Papp (in vitro): 186 ×10⁻⁶ cm/s
- solubility [1]: > 47 µg/mL
- t1/2 [2]: > 30 min

SMILES: O=C(CN1CCOCC1)NCCCn1c(=O)c2cc(F)ccc2n2c(=S)[nH]nc12
- Papp (in vitro): < 1 ×10⁻⁶ cm/s
- solubility [1]: > 62 µg/mL
- t1/2 [2]: > 30 min

SMILES: COCCCn1c(=O)c2ccccc2n2c(S)nnc12
- pIC50 [4]: 5.76
- solubility [1]: 31.2 µg/mL (≈ 107 µM)

SMILES: CC(C)(C)OC(=O)NCCCCCC(=O)NCCCn1c(=O)c2cc(F)ccc2n2c(=S)[nH]nc12
- Papp (in vitro): 405 ×10⁻⁶ cm/s
- solubility [1]: > 75 µg/mL
- t1/2 [2]: > 30 min

SMILES: O=c1c2cccc(F)c2n2c(=S)[nH]nc2n1CCc1ccccc1
- Papp (in vitro): 141 ×10⁻⁶ cm/s
- solubility [1]: 3.4 µg/mL (≈ 9.99 µM)
- t1/2 [2]: > 30 min

SMILES: Nc1nnc2n(CCc3ccccc3)c(=O)c3cc(F)ccc3n12
- Papp (in vitro): 885 ×10⁻⁶ cm/s
- solubility [1]: 2.2 µg/mL (≈ 6.8 µM)
- t1/2 [2]: 29.4 min

SMILES: O=c1c2ccccc2n2c(=S)[nH]nc2n1CCC(F)(F)F
- Papp (in vitro): 82 ×10⁻⁶ cm/s
- solubility [1]: 23.3 µg/mL (≈ 74.1 µM)
- t1/2 [2]: > 30 min

SMILES: CCCn1c(=O)c2cccc(F)c2n2c(SC)nnc12
- Activity (HeLa [6]): Active
- Activity (HeLa [7]): Active

SMILES: CCn1c(=O)c2ccccc2n2c(=S)[nH]nc12
- Papp (in vitro): 427 ×10⁻⁶ cm/s
- solubility [1]: > 36 µg/mL
- t1/2 [2]: > 30 min

SMILES: O=c1c2cc(F)ccc2n2cnnc2n1CCc1ccccc1
- Papp (in vitro): 924 ×10⁻⁶ cm/s
- solubility [1]: 14.8 µg/mL (≈ 48 µM)
- t1/2 [2]: 11.8 min

SMILES: CCCCn1c(=O)c2ccccc2n2c(S)nnc12
- Papp (in vitro): 77.5 ×10⁻⁶ cm/s
- pIC50 [4]: 5.99
- solubility [1]: 8.5 µg/mL (≈ 31 µM)
- t1/2 [2]: > 30 min

SMILES: COc1cccc(CC(=O)NCCCn2c(=O)c3cc(F)ccc3n3c(=S)[nH]nc23)c1
- Papp (in vitro): 300 ×10⁻⁶ cm/s
- solubility ([1]; read-out: solubility): > 65 µg/mL
- t1/2 [2]: 20.1 min

SMILES: Cc1cccc(-n2c(=O)c3ccccc3n3c(S)nnc23)c1C
- pIC50 [4]: 5.73

SMILES: O=c1c2ccc(F)cc2n2c(=S)[nH]nc2n1CCc1ccccc1
- Papp (in vitro): 91 ×10⁻⁶ cm/s
- solubility [1]: < 1 µg/mL
- t1/2 [2]: 22.7 min

SMILES: O=C(NCCCn1c(=O)c2cc(F)ccc2n2c(=S)[nH]nc12)c1ccccc1
- Papp (in vitro): 267 ×10⁻⁶ cm/s
- solubility [1]: 21.9 µg/mL (≈ 55.1 µM)
- t1/2 [2]: > 30 min

SMILES: CCOCCCn1c(=O)c2ccccc2n2c(S)nnc12
- pIC50 [4]: 5.77
- solubility [1]: 15.5 µg/mL (≈ 50.9 µM)

SMILES: O=c1c2cc(F)ccc2n2c(=S)[nH]nc2n1CCc1ccc(Cl)cc1
- Papp (in vitro): < 1 ×10⁻⁶ cm/s
- solubility [1]: 1.2 µg/mL (≈ 3.2 µM)
- t1/2 [2]: > 30 min

SMILES: O=c1c2cc(F)ccc2n2c(=S)[nH]nc2n1CCc1cccnc1
- Papp (in vitro): < 1 ×10⁻⁶ cm/s
- solubility [1]: 25.1 µg/mL (≈ 73.5 µM)
- t1/2 [2]: > 30 min

SMILES: CC(=O)Nc1ccc2c(c1)c(=O)n(CCc1ccccc1)c1n[nH]c(=S)n21
- Papp (in vitro): 253 ×10⁻⁶ cm/s
- solubility [1]: 2.2 µg/mL (≈ 5.8 µM)
- t1/2 [2]: > 30 min

SMILES: CCCn1c(=O)c2ccccc2n2c(=S)n(CC(=O)c3ccccc3)nc12
- pIC50 [4]: < 4.30

SMILES: CN(C)c1ccc2c(c1)c(=O)n(CCc1ccccc1)c1n[nH]c(=S)n21
- Papp (in vitro): 356 ×10⁻⁶ cm/s
- solubility [1]: < 1 µg/mL
- t1/2 [2]: 13.3 min

SMILES: O=c1c2cc(F)ccc2n2c(=S)[nH]nc2n1CCN1CCOCC1
- Papp (in vitro): 67 ×10⁻⁶ cm/s
- solubility [1]: > 52 µg/mL
- t1/2 [2]: > 30 min

SMILES: O=c1c2cc(F)ccc2n2c(=S)[nH]nc2n1CCc1ccccn1
- Papp (in vitro): 355 ×10⁻⁶ cm/s
- solubility [1]: 13 µg/mL (≈ 38.1 µM)
- t1/2 [2]: > 30 min

SMILES: NS(=O)(=O)CCCC(=O)NCCCn1c(=O)c2cc(F)ccc2n2c(=S)[nH]nc12
- Papp (in vitro): 3 ×10⁻⁶ cm/s
- solubility [1]: 42.4 µg/mL (≈ 95.8 µM)
- t1/2 [2]: > 30 min

SMILES: CCCCCn1c(=O)c2ccccc2n2c(S)nnc12
- pIC50 [4]: 5.71
- solubility [1]: 4.2 µg/mL (≈ 14.6 µM)

SMILES: CC(C)(C)OC(=O)NC1CCC(C(=O)NCCCn2c(=O)c3cc(F)ccc3n3c(=S)[nH]nc23)CC1 (racemic)
- Papp (in vitro): 330 ×10⁻⁶ cm/s
- solubility [1]: > 77 µg/mL
- t1/2 [2]: 24.8 min

SMILES: CCCn1c(=O)c2cc(F)ccc2n2c(SC)nnc12
- t1/2 [8]: <= 120 min
- t1/2 [9]: <= 120 min
- t1/2 [10]: <= 120 min
- Activity (HeLa [6]): Active
- Activity (HeLa [7]): Active
